Reference: the NIST ThermoML archive (doi:10.1021/acs.jced.9b00078)

Experiment: xn = mol fraction of the nth substance listed
Details: Liquid, Other PVT measurement

CCCCCCCCCCCCCCCC [hexadecane] + O=C=O
mass density [kg/m3]
Details	303.2 K	313.2 K	333.2 K	353.2 K	373.2 K	393.2 K	413.2 K	433.2 K	453.2 K	473.2 K
10000 kPa, x2 = 0.2555	780.45	773.23	758.92	744.43	729.96	715.39	700.19	685.46	670.23	654.67
10000 kPa, x2 = 0.3703	–	778.18	759.26	746.79	731.25	715.75	698.68	681.51	664.54	647.28
20000 kPa, x2 = 0.2555	787.34	780.1	766.68	753	739.28	725.96	712.05	698.1	684	670.22
20000 kPa, x2 = 0.3703	793.48	785.88	771.19	756.53	742.07	727.42	712.39	697.06	681.26	665.86
30000 kPa, x2 = 0.2555	794.56	787.59	774.7	761.96	749.11	736.15	723.64	710.65	697.79	684.48
30000 kPa, x2 = 0.3703	801.32	793.73	780.08	766.24	752.26	738.82	725.13	711.36	697.06	683.13
30000 kPa, x2 = 0.7348	839.16	828.9	807.53	785.71	763.15	741.75	718.23	696.05	671.94	647.71
30000 kPa, x2 = 0.8645	872.71	857.83	827.32	793.96	758.29	725.26	688.46	649.67	613.21	578.59
40000 kPa, x2 = 0.2555	800.47	793.9	781.61	769.42	757.25	745.02	732.84	721.13	708.66	696.75
40000 kPa, x2 = 0.3703	807.74	800.81	787.53	774.17	761.32	748.53	735.68	723.06	709.8	697.04
40000 kPa, x2 = 0.7348	848.5	839.65	821.38	800.32	779.76	758.8	738	717.02	695.98	675.69
40000 kPa, x2 = 0.8645	885.49	870.69	840.65	812.52	785.33	757.98	729.63	702.92	673.61	644.14
50000 kPa, x2 = 0.2555	807.2	800.32	788.15	776.26	764.83	753.11	741.57	730.38	718.53	707.53
50000 kPa, x2 = 0.3703	814.58	807.06	794.36	782.12	769.45	756.96	744.66	732.8	720.85	708.83
50000 kPa, x2 = 0.7348	860.91	850.12	831.42	812.92	793.19	773.38	755.78	736.34	717.38	698.15
50000 kPa, x2 = 0.8645	900.22	885.44	859.09	833.73	810.58	783.06	759.09	735.07	709.83	685.57
